Assay results as given in article PMC7698926 (International Journal of Molecular Sciences, 2020).
Values after ≈ are worked out from the molar mass of the structure shown. Values joined by “and” are separate entries in the source; they are usually repeats but may differ in a detail not shown here. Equal values may be shown once. Read-outs that look alike come from different tables or passages of the source. Where a SMILES comes first, the peptide text is derived from it.

How the values were obtained:
X. oryzae pv. oryzicola = X. oryzae pv. oryzicola (Gram-negative); purified peptide; LB medium, 28 °C, 24 h
C. michiganensis [1] = system: C. michiganensis
R. solanacearum [2] = conditions: R. solanacearum (Gram-negative); purified peptide; LB medium, 28 °C, 24 h
[3] = system: Gram-negative and Gram-positive bacteria; conditions: range over C. fangii, R. solanacearum, C. michiganensis, X. oryzae pv oryzae, X. oryzae pv. oryzicola, B. subtilis (168)
X. oryzae pv. oryzae [4] = conditions: X. oryzae pv. oryzae (Gram-negative); purified peptide; LB medium, 28 °C, 24 h
C. fangii [5] = system: C. fangii
X. oryzae pv. oryzae [6] = assay type: cell-based, Xanthomonas oryzae pv. oryzae; conditions: peptide at MIC, 2 h, 28 °C; PBS control
C. fangii [7] = assay type: cell-based, Clavibacter fangii
R. solanacearum [8] = assay type: cell-based, Ralstonia solanacearum; conditions: R. solanacearum (G-); extracellular peptide from B. subtilis strain; mean ± SD, three independent experiments; control SCK6-e 0.75 ±0.050
X. oryzae pv. oryzae [9] = system: X. oryzae pv. oryzae; set-up: species or system rice; conditions: control SCK6-e
X. oryzae pv. oryzae [10] = assay type: cell-based, Xanthomonas oryzae pv. oryzae; conditions: X. oryzae pv. oryzae (G-); extracellular peptide from B. subtilis strain; mean ± SD, three independent experiments; control SCK6-e 0.66 ±0.033
X. oryzae pv. oryzae [11] = assay type: cell-based, Xanthomonas oryzae pv. oryzae; conditions: peptide at MIC; 28 °C, OD600 at 2–24 h; compared with polymyxin B
C. michiganensis [12] = assay type: cell-based, Clavibacter michiganensis subsp
X. oryzae pv. oryzae [13] = assay type: cell-based, Xanthomonas oryzae pv. oryzae; conditions: peptide 1 × MIC, OD600
[14] = system: C. fangii, X. oryzae pv. oryzae, C. michiganensis, and R. solanacearum; assay type: physicochemical; conditions: heated 30 min at 4 °C, 50 °C, 80 °C and 100 °C; agar diffusion on four indicator bacteria; compared to control SCK6-e
C. fangii [15] = experiment: Salt sensitivity assay; assay type: cell-based, Clavibacter fangii; conditions: peptide 1 × MIC, OD600
X. oryzae pv. oryzae [16] = assay type: cell-based, Xanthomonas oryzae pv. oryzae; conditions: peptide at MIC, 10 μM DCFH-DA, 28 °C, after 30 min, upward trend at 120 min; compared to untreated strain
X. oryzae pv. oryzae [17] = assay type: cell-based, Xanthomonas oryzae pv. oryzae; conditions: peptide at MIC, 2 h, 28 °C; X. oryzae pv. oryzae exponential phase; flow cytometry; control 0.07%
Magnaporthe oryzae = assay type: cell-based; conditions: peptide 260 μg/mL in PDA, 28 °C, 96 h; buffer control

Molecule	MIC (B. subtilis (168); 168, 24 h) [µM]	MIC (X. oryzae pv. oryzicola) [µM]	MIC (C. michiganensis [1]; 24 h) [µM]	MIC (R. solanacearum [2]) [µM]	MIC (range over six bacteria) [3]	MIC (X. oryzae pv. oryzae [4]) [µM]	MIC (C. fangii [5]; 24 h) [µM]	bacteriostatic diameter (C. fangii [7]) [cm]	bacteriostatic diameter (R. solanacearum [8]) [cm]	bacteriostatic diameter (X. oryzae pv. oryzae [10]) [cm]	bacteriostatic diameter (C. michiganensis [12]) [cm]	further results
CSCC[C@H](NC(=O)[C@@H](NC(=O)[C@@H](NC(=O)[C@H](CC(N)=O)NC(=O)[C@H](CC(N)=O)NC(=O)[C@H](CC(C)C)NC(=O)[C@H](CCCNC(=N)N)NC(=O)[C@H](CC(C)C)NC(=O)[C@@H](NC(=O)[C@H](CO)NC(=O)[C@H](CO)NC(=O)[C@@H](NC(=O)[C@@H]1CCCN1C(=O)[C@@H](NC(=O)CNC(=O)[C@@H](N)CC(C)C)C(C)C)C(C)C)[C@@H](C)O)[C@@H](C)O)[C@@H](C)O)C(=O)N[C@@H](CC(N)=O)C(=O)N1CCC[C@H]1C(=O)N[C@@H](CS)C(=O)N[C@@H](CC(C)C)C(=O)N1CCC[C@H]1C(=O)N[C@@H](CO)C(=O)O [OrR935] (H-LGVPVSSTLRLNNTTMNPCLPS-OH)	36.1 (≈ 83.6 µg/mL)	31.4 (≈ 72.7 µg/mL)	34.6 (≈ 80.1 µg/mL)	33 (≈ 76.4 µg/mL)	31.4 to 44.0 µM	44.0 (≈ 102 µg/mL)	37.7 (≈ 87.3 µg/mL)	–	–	–	–	–
CC[C@H](C)[C@H](NC(=O)[C@H](CO)NC(=O)[C@H](CCCCN)NC(=O)[C@H](CCCNC(=N)N)NC(=O)[C@@H](NC(=O)[C@H](CCC(=O)O)NC(=O)[C@H](Cc1ccc(O)cc1)NC(=O)[C@H](CS)NC(=O)[C@H](Cc1c[nH]cn1)NC(=O)[C@@H](NC(=O)[C@H](Cc1c[nH]cn1)NC(=O)[C@H](CCCCN)NC(=O)[C@H](CCC(=O)O)NC(=O)[C@H](CO)NC(=O)[C@H](CO)NC(=O)[C@@H](NC(=O)[C@H](CS)NC(=O)[C@H](CC(N)=O)NC(=O)[C@H](Cc1ccc(O)cc1)NC(=O)[C@@H](NC(=O)[C@H](Cc1c[nH]cn1)NC(=O)[C@@H](NC(=O)[C@H](Cc1ccc(O)cc1)NC(=O)[C@@H](NC(=O)[C@H](CC(=O)O)NC(=O)[C@@H](NC(=O)[C@@H](N)CC(C)C)C(C)C)[C@@H](C)CC)[C@@H](C)O)C(C)C)[C@@H](C)O)[C@@H](C)O)[C@@H](C)CC)C(=O)N[C@@H](CO)C(=O)O [OrR214] (H-LVDIYTHVYNCTSSEKHTHCYEIRKSIS-OH)	8.3 (≈ 27.6 µg/mL)	–	10.5 (≈ 34.9 µg/mL)	–	–	–	10.7 (≈ 35.6 µg/mL)	1.1 ±0.033	1.3 ±0.050	1.3 ±0.058	1.2 ±0.033	cell morphology by SEM and TEM (X. oryzae pv. oryzae [6]): severe damage to the cell membrane surface; necrotic leaf lesion growth on detached rice leaves (X. oryzae pv. oryzae [9]; X. oryzae pv. oryzae mixed with peptide, leaf clipping, 28 °C, 7 d): decreased necrotic leaf lesion growth; incidence of rice leaves (X. oryzae pv. oryzae [9]; X. oryzae pv. oryzae, 7 d post-inoculation, lesion length): decreased significantly; time-kill, bacterial growth after peptide treatment (X. oryzae pv. oryzae [11]): hardly grew after 12 h of treatment; antimicrobial activity at 150 mM Na+ (X. oryzae pv. oryzae [13]; NaCl 150 mM): slightly affected; antibacterial activity at 50–100 mM Na+ (X. oryzae pv. oryzae [13]; NaCl 50, 100 mM): significant bacteriostatic effect; antimicrobial activity after heating (thermal stability) [14]: significant activity; antimicrobial activity at 150 mM Na+ (C. fangii [15]; NaCl 150 mM): slightly affected; antibacterial activity at 50–100 mM Na+ (C. fangii [15]; NaCl 50, 100 mM): significant bacteriostatic effect; ROS production, DCFH-DA fluorescence intensity (X. oryzae pv. oryzae [16]): significantly increased; PI staining rate (PI uptake) (X. oryzae pv. oryzae [17]): ~37.1%; mycelium growth of Magnaporthe oryzae (Magnaporthe oryzae): significantly inhibit the mycelium growth
LSFCSCIRTNLDGFDQKLQWNPHFY [OrR1135, candidate antimicrobial peptide from the O. rufipogon cDNA library, 25 amino acids]	–	–	–	–	–	–	–	1.1 ±0.060	1.4 ±0.050	1.2 ±0.11	1.2 ±0.033	–
Polymyxin B [reference compound]	–	10.0	–	7.5	5 to 25 µM and 5.0 to 25.0 µM	5.0	–	–	–	–	–	MIC (B. subtilis (168); B. subtilis (168) (Gram-positive), purified peptide, LB medium, 28 °C, 24 h): 15.0 µM; MIC (C. michiganensis [1]): 12.5 µM; MIC (C. fangii [5]): 25.0 µM
